Data on 13 compounds can be found in patent publication US12583855B2, “RET selective inhibitor, preparation method therefor and use thereof” (SHOUYAO HOLDINGS (BEIJING) CO., LTD., priority 2019, dated 2026).

Numbering of substitutions follows the chain as printed.

One assay has as its target T1, RET^WT (Homo sapiens, UniProt P07949).
T1 construct: GST-RET^WT (658-1114 aa, final concentration of 0.5 nM)
T1 sequence (P07949 658-1114): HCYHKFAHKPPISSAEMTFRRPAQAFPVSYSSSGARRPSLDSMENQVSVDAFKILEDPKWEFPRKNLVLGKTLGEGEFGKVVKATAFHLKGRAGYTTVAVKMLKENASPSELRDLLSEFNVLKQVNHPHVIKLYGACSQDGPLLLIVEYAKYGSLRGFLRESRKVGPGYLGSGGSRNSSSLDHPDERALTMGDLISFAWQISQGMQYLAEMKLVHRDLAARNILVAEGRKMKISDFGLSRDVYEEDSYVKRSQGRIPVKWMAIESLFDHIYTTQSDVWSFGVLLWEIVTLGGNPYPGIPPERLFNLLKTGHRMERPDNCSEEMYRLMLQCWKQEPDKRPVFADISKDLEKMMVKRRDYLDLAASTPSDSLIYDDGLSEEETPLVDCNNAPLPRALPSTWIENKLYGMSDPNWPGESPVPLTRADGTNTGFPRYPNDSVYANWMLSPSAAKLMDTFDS
Briefly: In vitro enzymatic activity assay on RET^WT (HTRF). The format is biochemical. Particulars: GST-RET^WT (658-1114 aa) 0.5 nM, ATP 25 μM. The gist of the method: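 Reaction run 2 h at 23 °C in HEPES pH 7.5 buffer with Na3VO4, MgCl2, DTT, Tween 20 and BSA; compounds tested at 7 concentrations (5-fold serial dilution in DMSO from 0.2 mM stock). HTRF detection with TK antibody and streptavidin-XL665; IC50 from curve fitting.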
(Time-resolved FRET reads energy transfer from a long-lived donor to a nearby acceptor.)

For a further assay, the target named is T2, RET^V804M (Homo sapiens, UniProt P07949, V804M).
T2 construct: GST-RET^V804M (658-1114 aa, final concentration of 0.02 nM)
T2 sequence (P07949 658-1114 V804M): T1 sequence (P07949 658-1114) with V147M
Kind of assay: In vitro enzymatic activity assay on RET^V804M (HTRF). The format is biochemical. Conditions: GST-RET^V804M (658-1114 aa) 0.02 nM, ATP 1.5 μM.

In the next assay the target is VEGFR2 (Homo sapiens, UniProt P35968). Briefly: In vitro enzymatic activity assay on VEGFR2 (HTRF). It is filed as biochemical. Conditions: GST-VEGFR2 0.1 nM, ATP 2.5 μM. In a few lines:
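GST-VEGFR2 (0.1 nM final) with 2.5 μM ATP and 1 μM TK peptide substrate in HEPES pH 7.5 buffer with Mg²⁺/Mn²⁺, 1.5 h at 23 °C. HTRF read-out (665/620 nm ratio) after adding TK antibody and streptavidin-XL665. IC50 from 7-point, 5-fold dilution series.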

The subject of the next assay is TT cells. Briefly: TT cell proliferation activity (Cell-Titer Glo). The format is cell-based. Particulars: TT human thyroid carcinoma cells, 120 h. The procedure:
4. Determination of TT Cell Proliferation Activity of Compounds
TT cells, a human thyroid carcinoma cell line, were cultured in Ham's F-12K medium supplemented with 15% fetal bovine serum (FBS, purchased from Biological Industries, BI) and 1% penicillin/streptomycin double antibody (P/S, purchased from Life Technology) under conditions of 37° C. and 5% CO2. TT cells were plated in a 96-well plate (#3917 purchased from Corning) at a concentration of 5000 cells/195 μL/well the day before compound was detected. The compounds were diluted 3-fold with 100% DMSO starting from 10 mM (10 concentrations in total) after 24 h, and 2 μL of each concentration was diluted in 48 μL of Ham's F-12K medium. 5 μL of each diluted compound was added to the plated Cell suspension, the compound and cells were co-incubated in a cell incubator for 120 h (5 days), after the medium was aspirated. 25 μL of Cell-Titer Glo (G7570, purchased from Promega) reagent was added and re-incubated for 5-10 min. Fluorescence value was then read on Envision and the data were calculated using GraphPad Prism software to obtain IC50 values for inhibition of cell proliferation by the compounds.

Chain of VEGFR2 (P35968 20-1356): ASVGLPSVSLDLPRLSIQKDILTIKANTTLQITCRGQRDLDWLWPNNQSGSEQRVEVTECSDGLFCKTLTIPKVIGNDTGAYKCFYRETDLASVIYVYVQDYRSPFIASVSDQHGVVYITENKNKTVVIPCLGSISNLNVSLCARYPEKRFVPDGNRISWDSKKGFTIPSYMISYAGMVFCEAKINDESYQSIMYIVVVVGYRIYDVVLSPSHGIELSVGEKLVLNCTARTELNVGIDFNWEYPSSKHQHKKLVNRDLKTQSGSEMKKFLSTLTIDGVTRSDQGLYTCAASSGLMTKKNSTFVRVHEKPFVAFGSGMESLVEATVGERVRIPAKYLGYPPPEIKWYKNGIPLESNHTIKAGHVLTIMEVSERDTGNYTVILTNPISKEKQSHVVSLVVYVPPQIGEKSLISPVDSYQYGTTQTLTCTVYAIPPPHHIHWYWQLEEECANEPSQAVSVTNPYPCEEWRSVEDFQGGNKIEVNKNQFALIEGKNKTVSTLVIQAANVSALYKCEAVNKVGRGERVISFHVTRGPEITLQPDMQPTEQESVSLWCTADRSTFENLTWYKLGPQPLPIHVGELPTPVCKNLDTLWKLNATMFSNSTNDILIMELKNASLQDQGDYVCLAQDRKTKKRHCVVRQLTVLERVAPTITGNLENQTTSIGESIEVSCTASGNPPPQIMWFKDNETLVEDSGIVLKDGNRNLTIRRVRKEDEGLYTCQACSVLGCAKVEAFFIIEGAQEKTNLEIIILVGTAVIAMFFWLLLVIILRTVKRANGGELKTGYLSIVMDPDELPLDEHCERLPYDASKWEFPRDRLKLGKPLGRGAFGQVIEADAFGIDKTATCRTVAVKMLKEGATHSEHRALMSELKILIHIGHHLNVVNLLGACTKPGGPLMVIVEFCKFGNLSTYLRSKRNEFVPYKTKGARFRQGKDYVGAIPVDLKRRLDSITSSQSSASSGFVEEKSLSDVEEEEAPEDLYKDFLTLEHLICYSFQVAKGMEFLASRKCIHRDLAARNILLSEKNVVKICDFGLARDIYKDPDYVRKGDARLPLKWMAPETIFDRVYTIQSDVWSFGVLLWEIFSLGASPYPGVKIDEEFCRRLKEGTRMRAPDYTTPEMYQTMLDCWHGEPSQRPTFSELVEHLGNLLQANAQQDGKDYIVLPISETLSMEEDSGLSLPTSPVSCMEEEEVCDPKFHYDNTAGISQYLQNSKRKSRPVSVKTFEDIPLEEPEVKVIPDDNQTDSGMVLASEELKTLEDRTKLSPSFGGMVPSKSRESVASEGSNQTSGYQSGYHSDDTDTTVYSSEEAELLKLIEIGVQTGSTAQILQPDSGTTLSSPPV

Broadly, the IC50 is the midpoint of a concentration-inhibition curve. A low value points to inhibition by little substance. Turning to `CS(=O)(=O)c1cccc(CN2C3CC2CN(c2ccc(-c4cc(N5CC(F)(F)C5)cn5ncc(C#N)c45)cn2)C3)c1` [Example 64, 6-(3,3-difluoroazetidin-1-yl)-4-(6-(6-(3-(methylsulfonyl)benzyl)-3,6-diazabicyclo[3.1.1]heptan-3-yl)pyridin-3-yl)pyrazolo[1,5-a]pyridine-3-carbonitrile], the IC50 at RET^WT came to 0.493 nM; against RET^V804M it was 1.71 nM; at VEGFR2, 15.5 nM; with TT cells it was 42.2 nM.

On to `CS(=O)(=O)c1ccc(CN2C3CC2CN(c2ccc(-c4cc(-c5cnn(C(F)F)c5)cn5ncc(C#N)c45)cn2)C3)nc1` [Example 78, 6-(1-(difluoromethyl)-1Hpyrazol-4-yl)-4-(6-(6-((5-(methylsulfonyl)pyridin-2-yl)methyl)-3,6-diazabicyclo[3.1.1]heptan-3-yl)pyridine-3-yl)pyrazolo[1,5-a]pyridine-3-carbonitrile], for which the IC50 on RET^WT was 0.387 nM; at RET^V804M, 1.04 nM; against VEGFR2, 10.4 nM; in the assay on TT cells it was 28.2 nM.

In the case of `CS(=O)(=O)c1ccccc1CN1C2CC1CN(c1ccc(-c3cc(-c4cnn(C(F)F)c4)cn4ncc(C#N)c34)cn1)C2` [Example 56, 6-(1-difluoromethyl-1Hpyrazol-4-yl)-4-(6-(6-(2-(methylsulfonyl)benzyl)-3,6-diazabicyclo[3.1.1]heptan-3-yl)pyridin-3-yl)pyrazolo[1,5-a]pyridine-3-carbonitrile], the IC50 at RET^WT was found to be 0.08 nM; against RET^V804M, 1.78 nM; against VEGFR2 it was 59 nM; with TT cells it was 39.9 nM.

Regarding `CS(=O)(=O)c1ccc(CN2C3CC2CN(c2ccc(-c4cc(-c5cn[nH]c5)cn5ncc(C#N)c45)cn2)C3)cc1` [Example 53, 6-(1Hpyrazol-4-yl)-4-(6-(6-(4-(methylsulfonyl)benzyl)-3,6-diazabicyclo 13.1.11 heptan-3-yl)pyridin-3-yl)pyrazolo[1,5-a]pyridine-3-carbonitrile], the IC50 on RET^WT amounted to 0.072 nM; against RET^V804M, 0.807 nM; against VEGFR2, 2.46 nM; with TT cells, 14.6 nM.

Consider `CS(=O)(=O)c1cccc(CN2CCN(c3ccc(-c4cc(-c5cnn(C(F)F)c5)cn5ncc(C#N)c45)cn3)CC2)c1` [Example 47, 6-(1-difluoromethyl-1Hpyrazol-4 yl)-4-(6-(4-(3-(methylsulfonyl)benzyl)piperazin-1-yl)pyridin-3-yl)pyrazolo[1,5-a]pyridine-3-carbonitrile], for which the IC50 against RET^WT came out at 0.343 nM; at RET^V804M, 2.48 nM; against VEGFR2 it was 16.9 nM; in the assay on TT cells, 53.1 nM.

Take `CS(=O)(=O)c1cccc(CN2C3CC2CN(c2ccc(-c4cc(-c5cnn(C(F)F)c5)cn5ncc(C#N)c45)cn2)C3)c1` [Example 55, 6-(1-difluoromethyl-1Hpyrazol-4-yl)-4-(6-(6-(3-(methylsulfonyl)benzyl)-3,6-diazabicyclo[3.1.1]heptan-3-yl)pyridin-3-yl)pyrazolo[1,5-a]pyridine-3-carbonitrile]: the half-maximal inhibitory concentration (IC50) at RET^WT came to 0.109 nM; against RET^V804M it was 0.976 nM; at VEGFR2, 19.6 nM; with TT cells, 15.4 nM.

For `COc1ccc(CN2CCN(c3ccc(-c4cc(N5CC(C#N)C5)cn5ncc(C#N)c45)cn3)CC2)cn1` [Example 32, 6-(3-cyanoazetidin-1-yl)-4-(6-(4-((6-methoxypyridin-3-yl)methyl)piperazin-1-yl)pyridin-3-yl)pyrazolo[1,5-a]pyridine-3-carbonitrile], the IC50 at RET^WT is 0.8 nM; against RET^V804M it was 3.19 nM; against VEGFR2, 29.1 nM; with TT cells, 48.7 nM.

With `Cn1cc(-c2cc(-c3ccc(N4CCN(C(=O)C5=CCCC5)CC4)nc3)c3c(C#N)cnn3c2)cn1` [Example 2, 4-(6-(4-(cyclopent-1-ene-1-carbonyl)piperazin-1-yl)pyridin-3-yl)-6-(1-methyl-1Hpyrazol-4-yl)pyrazolo[1,5-a]pyridine-3-carbonitrile], the 50% inhibitory concentration (IC50) stood at 0.108 nM against RET^WT, 0.906 nM against RET^V804M, 13.4 nM against VEGFR2 and 26.1 nM in the assay with TT cells.

In the case of `Cn1cc(-c2cc(-c3ccc(N4CC5CC(C4)N5Cc4ccc(S(C)(=O)=O)nc4)nc3)c3c(C#N)cnn3c2)cn1` [Example 76, 6-(1-(methyl)-1Hpyrazol-4-yl)-4-(6-(6-((6-(methylsulfonyl)pyridin-3-yl)methyl)-3,6-diazabicyclo[3.1.1]heptan-3-yl)pyridin-3-yl)pyrazolo[1,5-a]pyridine-3-carbonitrile], the IC50 against RET^WT stood at 0.296 nM; on RET^V804M, 0.479 nM; on VEGFR2, 2.81 nM; with TT cells it was 16.6 nM.

As for `Cn1cc(-c2cc(-c3ccc(N4CC5CC(C4)N5Cc4ccc(S(C)(=O)=O)cn4)nc3)c3c(C#N)cnn3c2)cn1` [Example 79, 6-(1-(methyl)-1Hpyrazol-4-yl)-4-(6-(6-((5-(methylsulfonyl)pyridin-2-yl)methyl)-3,6-diazabicyclo[3.1.1]heptan-3-yl)pyridin-3-yl)pyrazolo[1,5-a]pyridine-3-carbonitrile], the IC50 at RET^WT was 0.331 nM; against RET^V804M it was 0.64 nM; against VEGFR2, 5.21 nM; in the assay with TT cells it was 21.3 nM.

Regarding `CS(=O)(=O)c1ccc(CN2C3CC2CN(c2ccc(-c4cc(-c5cnn(C(F)F)c5)cn5ncc(C#N)c45)cn2)C3)cn1` [Example 77, 6-(1-(difluoromethyl)-1Hpyrazol-4-yl)-4-(6-(6-((6-(methylsulfonyl)pyridin-3-yl)methyl)-3,6-diazabicyclo[3.1.1]heptan-3-yl)pyridin-3-yl)pyrazolo[1,5-a]pyridine-3-carbonitrile], the IC50 against RET^WT is 0.468 nM; against RET^V804M, 0.791 nM; at VEGFR2, 7.56 nM; in the assay on TT cells it was 23.1 nM.

In the case of `Cn1cc(-c2cc(-c3ccc(N4CC5CC(C4)N5Cc4ccccc4S(C)(=O)=O)nc3)c3c(C#N)cnn3c2)cn1` [Example 43, 6-(1-methyl-1Hpyrazol-4-yl)-4-(6-(6-(2-(methylsulfonyl)benzyl)-3,6-diazabicyclo[3.1.1]heptan-3-yl)pyridin-3-yl)pyrazolo[1,5a]pyridine-3-carbonitrile], the concentration for half-maximal inhibition (IC50) at RET^WT is 0.132 nM; against RET^V804M, 0.507 nM; at VEGFR2 it was 13.4 nM; in the assay on TT cells, 16.4 nM.

With `Cn1cc(-c2cc(-c3cnc(N4CC5CC(C4)N5Cc4ccc(S(C)(=O)=O)cc4)cn3)c3c(C#N)cnn3c2)cn1` [Example 41, 6-(1-methyl-1Hpyrazol-4-yl)-4-(5-(6-(4-(methylsulfonyl)benzyl)-3,6-diazabicyclo[3.1.1]heptan-3-yl)pyrazin-2-yl)pyrazolo[1,5-a]pyridine-3-carbonitrile], the IC50 at RET^WT was found to be 0.352 nM; against RET^V804M it was 1.04 nM; on VEGFR2, 17.3 nM; with TT cells, 18.2 nM.
